Reference: PubChem BioAssay (NCI)
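Interpolation was linear, between the two tested concentrations surrounding the appropriate level; five concentrations were tested over 48 hours in 96-well plates. TGI: total growth inhibition.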

How the values were obtained:
Experiment in all cases: NCI-60 cell line screen, 48 h
DU-145 prostate = test system: DU-145 prostate
BT-549 breast = test system: BT-549 breast
SK-MEL-5 melanoma = test system: SK-MEL-5 melanoma
A549 NSCLC = test system: A549 NSCLC
KM12 colon = test system: KM12 colon
OVCAR-5 ovarian = test system: OVCAR-5 ovarian
HCC-2998 colon = test system: HCC-2998 colon
SF-295 CNS = test system: SF-295 CNS
SK-MEL-2 melanoma = test system: SK-MEL-2 melanoma
HT29 colon = test system: HT29 colon
SK-MEL-28 melanoma = test system: SK-MEL-28 melanoma
HL-60(TB) leukemia = test system: HL-60(TB) leukemia
HOP-62 NSCLC = test system: HOP-62 NSCLC
U251 CNS = test system: U251 CNS
MDA-MB-231 breast = test system: MDA-MB-231 breast
PC-3 prostate = test system: PC-3 prostate
CAKI-1 renal = test system: CAKI-1 renal
ACHN renal = test system: ACHN renal
UO-31 renal = test system: UO-31 renal
NCI/ADR-RES ovarian = test system: NCI/ADR-RES ovarian
TK-10 renal = test system: TK-10 renal
MDA-N = test system: MDA-N
HCT-116 colon = test system: HCT-116 colon
NCI-H226 lung = test system: NCI-H226 lung
A498 renal = test system: A498 renal
SNB-75 CNS = test system: SNB-75 CNS
OVCAR-4 ovarian = test system: OVCAR-4 ovarian
MALME-3M melanoma = test system: MALME-3M melanoma
MDA-MB-435 = test system: MDA-MB-435
SNB-19 CNS = test system: SNB-19 CNS
K-562 leukemia = test system: K-562 leukemia
HCT-15 colon = test system: HCT-15 colon
COLO 205 colon = test system: COLO 205 colon
OVCAR-3 ovarian = test system: OVCAR-3 ovarian
EKVX NSCLC = test system: EKVX NSCLC
IGROV1 ovarian = test system: IGROV1 ovarian
NCI-H23 lung = test system: NCI-H23 lung
MCF7 breast = test system: MCF7 breast
RXF 393 renal = test system: RXF 393 renal
CCRF-CEM leukemia = test system: CCRF-CEM leukemia
HOP-92 NSCLC = test system: HOP-92 NSCLC
SF-539 CNS = test system: SF-539 CNS
SR leukemia = test system: SR leukemia
MOLT-4 leukemia = test system: MOLT-4 leukemia
SF-268 CNS = test system: SF-268 CNS
UACC-257 melanoma = test system: UACC-257 melanoma
OVCAR-8 ovarian = test system: OVCAR-8 ovarian
SW-620 colon = test system: SW-620 colon
RPMI-8226 leukemia = test system: RPMI-8226 leukemia
SN12C renal = test system: SN12C renal
786-0 renal = test system: 786-0 renal
NCI-H460 lung = test system: NCI-H460 lung
M14 melanoma = test system: M14 melanoma
LOX IMVI melanoma = test system: LOX IMVI melanoma
SK-OV-3 ovarian = test system: SK-OV-3 ovarian
T-47D breast = test system: T-47D breast
NCI-H522 lung = test system: NCI-H522 lung
UACC-62 melanoma = test system: UACC-62 melanoma
HS 578T breast = test system: HS 578T breast

O=C=NCCCCCCN1C(=O)N2C(c3ccccc3)N(CCCCCCN=C=O)C(=O)N2C1c1ccccc1 (configuration not stated)
TGI (DU-145 prostate): > 100 µM
TGI (BT-549 breast): > 100 µM
TGI (SK-MEL-5 melanoma): > 100 µM
TGI (A549 NSCLC): > 100 µM
TGI (KM12 colon): > 100 µM
TGI (OVCAR-5 ovarian): > 100 µM
TGI (HCC-2998 colon): > 100 µM
TGI (SF-295 CNS): > 100 µM
TGI (SK-MEL-2 melanoma): > 100 µM
TGI (HT29 colon): > 100 µM
TGI (SK-MEL-28 melanoma): > 100 µM
TGI (HL-60(TB) leukemia): > 100 µM
TGI (HOP-62 NSCLC): > 100 µM
TGI (U251 CNS): > 100 µM
TGI (MDA-MB-231 breast): > 100 µM
TGI (PC-3 prostate): > 100 µM
TGI (CAKI-1 renal): > 100 µM
TGI (ACHN renal): > 100 µM
TGI (UO-31 renal): > 100 µM
TGI (NCI/ADR-RES ovarian): > 100 µM
TGI (TK-10 renal): > 100 µM
TGI (MDA-N): > 100 µM
TGI (HCT-116 colon): > 100 µM
TGI (NCI-H226 lung): > 100 µM
TGI (A498 renal): > 100 µM
TGI (SNB-75 CNS): > 100 µM
TGI (OVCAR-4 ovarian): > 100 µM
TGI (MALME-3M melanoma): > 100 µM
TGI (MDA-MB-435): > 100 µM
TGI (SNB-19 CNS): > 100 µM
TGI (K-562 leukemia): > 100 µM
TGI (HCT-15 colon): > 100 µM
TGI (COLO 205 colon): > 100 µM
TGI (OVCAR-3 ovarian): > 100 µM
TGI (EKVX NSCLC): > 100 µM
TGI (IGROV1 ovarian): > 100 µM
TGI (NCI-H23 lung): > 100 µM
TGI (MCF7 breast): > 100 µM
TGI (RXF 393 renal): > 100 µM
TGI (CCRF-CEM leukemia): > 100 µM
TGI (HOP-92 NSCLC): > 100 µM
TGI (SF-539 CNS): > 100 µM
TGI (SR leukemia): > 100 µM
TGI (MOLT-4 leukemia): > 100 µM
TGI (SF-268 CNS): > 100 µM
TGI (UACC-257 melanoma): > 100 µM
TGI (OVCAR-8 ovarian): > 100 µM
TGI (SW-620 colon): > 100 µM
TGI (RPMI-8226 leukemia): > 100 µM
TGI (SN12C renal): > 100 µM
TGI (786-0 renal): > 100 µM
TGI (NCI-H460 lung): > 100 µM
TGI (M14 melanoma): > 100 µM
TGI (LOX IMVI melanoma): > 100 µM

O=C1c2scc(-c3ccc(Cl)cc3)c2-n2cccc21
TGI (DU-145 prostate): > 100 µM
TGI (SK-MEL-5 melanoma): > 100 µM
TGI (A549 NSCLC): > 100 µM
TGI (KM12 colon): > 100 µM
TGI (OVCAR-5 ovarian): > 100 µM
TGI (HCC-2998 colon): > 100 µM
TGI (SF-295 CNS): > 100 µM
TGI (SK-MEL-2 melanoma): > 100 µM
TGI (SK-MEL-28 melanoma): > 100 µM
TGI (MDA-MB-231 breast): > 100 µM
TGI (PC-3 prostate): > 100 µM
TGI (ACHN renal): > 100 µM
TGI (MDA-N): > 100 µM
TGI (A498 renal): 2.78 µM
TGI (SNB-75 CNS): > 100 µM
TGI (SK-OV-3 ovarian): > 100 µM
TGI (MALME-3M melanoma): > 100 µM
TGI (T-47D breast): > 100 µM
TGI (MDA-MB-435): > 100 µM
TGI (K-562 leukemia): > 100 µM
TGI (COLO 205 colon): > 100 µM
TGI (OVCAR-3 ovarian): > 100 µM
TGI (EKVX NSCLC): > 100 µM
TGI (IGROV1 ovarian): > 100 µM
TGI (RXF 393 renal): > 100 µM
TGI (CCRF-CEM leukemia): > 100 µM
TGI (SR leukemia): 13.7 µM
TGI (NCI-H522 lung): > 100 µM
TGI (MOLT-4 leukemia): > 100 µM
TGI (UACC-62 melanoma): > 100 µM
TGI (UACC-257 melanoma): > 100 µM
TGI (SW-620 colon): > 100 µM
TGI (RPMI-8226 leukemia): > 100 µM
TGI (NCI-H460 lung): > 100 µM
TGI (M14 melanoma): > 100 µM
TGI (LOX IMVI melanoma): > 100 µM

CN(C)C(=O)Oc1ccc(-c2cn3cc(NC(=O)c4ccccc4)ccc3n2)cc1
TGI (DU-145 prostate): > 100 µM
TGI (BT-549 breast): > 100 µM
TGI (SK-MEL-5 melanoma): 74.1 µM
TGI (A549 NSCLC): > 100 µM
TGI (KM12 colon): > 100 µM
TGI (OVCAR-5 ovarian): > 100 µM
TGI (HCC-2998 colon): > 100 µM
TGI (SF-295 CNS): > 100 µM
TGI (SK-MEL-2 melanoma): > 100 µM
TGI (HT29 colon): > 100 µM
TGI (SK-MEL-28 melanoma): > 100 µM
TGI (HOP-62 NSCLC): > 100 µM
TGI (U251 CNS): > 100 µM
TGI (MDA-MB-231 breast): > 100 µM
TGI (PC-3 prostate): > 100 µM
TGI (CAKI-1 renal): > 100 µM
TGI (ACHN renal): > 100 µM
TGI (UO-31 renal): > 100 µM
TGI (NCI/ADR-RES ovarian): > 100 µM
TGI (TK-10 renal): > 100 µM
TGI (MDA-N): > 100 µM
TGI (HCT-116 colon): > 100 µM
TGI (NCI-H226 lung): > 100 µM
TGI (A498 renal): > 100 µM
TGI (SNB-75 CNS): > 100 µM
TGI (SK-OV-3 ovarian): > 100 µM
TGI (OVCAR-4 ovarian): > 100 µM
TGI (T-47D breast): > 100 µM
TGI (MDA-MB-435): > 100 µM
TGI (SNB-19 CNS): > 100 µM
TGI (K-562 leukemia): > 100 µM
TGI (HCT-15 colon): > 100 µM
TGI (COLO 205 colon): 32 µM
TGI (OVCAR-3 ovarian): > 100 µM
TGI (EKVX NSCLC): > 100 µM
TGI (IGROV1 ovarian): > 100 µM
TGI (NCI-H23 lung): > 100 µM
TGI (MCF7 breast): > 100 µM
TGI (RXF 393 renal): > 100 µM
TGI (CCRF-CEM leukemia): > 100 µM
TGI (HOP-92 NSCLC): > 100 µM
TGI (SF-539 CNS): > 100 µM
TGI (SR leukemia): > 100 µM
TGI (NCI-H522 lung): > 100 µM
TGI (MOLT-4 leukemia): > 100 µM
TGI (SF-268 CNS): > 100 µM
TGI (UACC-62 melanoma): > 100 µM
TGI (UACC-257 melanoma): > 100 µM
TGI (OVCAR-8 ovarian): > 100 µM
TGI (SW-620 colon): > 100 µM
TGI (RPMI-8226 leukemia): > 100 µM
TGI (SN12C renal): > 100 µM
TGI (786-0 renal): > 100 µM
TGI (NCI-H460 lung): > 100 µM
TGI (M14 melanoma): > 100 µM
TGI (LOX IMVI melanoma): > 100 µM

COc1ccc(/C=C2\N=C(NN)N=C2Cl)cc1
TGI (DU-145 prostate): > 100 µM
TGI (SK-MEL-5 melanoma): > 100 µM
TGI (A549 NSCLC): > 100 µM
TGI (KM12 colon): > 100 µM
TGI (OVCAR-5 ovarian): > 100 µM
TGI (HCC-2998 colon): > 100 µM
TGI (SF-295 CNS): > 100 µM
TGI (SK-MEL-2 melanoma): > 100 µM
TGI (HT29 colon): > 100 µM
TGI (SK-MEL-28 melanoma): > 100 µM
TGI (HL-60(TB) leukemia): > 100 µM
TGI (HOP-62 NSCLC): > 100 µM
TGI (U251 CNS): > 100 µM
TGI (MDA-MB-231 breast): > 100 µM
TGI (PC-3 prostate): > 100 µM
TGI (CAKI-1 renal): > 100 µM
TGI (ACHN renal): > 100 µM
TGI (UO-31 renal): > 100 µM
TGI (NCI/ADR-RES ovarian): > 100 µM
TGI (TK-10 renal): > 100 µM
TGI (MDA-N): > 100 µM
TGI (HCT-116 colon): > 100 µM
TGI (NCI-H226 lung): > 100 µM
TGI (A498 renal): > 100 µM
TGI (SNB-75 CNS): > 100 µM
TGI (SK-OV-3 ovarian): > 100 µM
TGI (OVCAR-4 ovarian): > 100 µM
TGI (MALME-3M melanoma): > 100 µM
TGI (T-47D breast): > 100 µM
TGI (MDA-MB-435): > 100 µM
TGI (SNB-19 CNS): > 100 µM
TGI (K-562 leukemia): > 100 µM
TGI (HCT-15 colon): > 100 µM
TGI (COLO 205 colon): > 100 µM
TGI (OVCAR-3 ovarian): > 100 µM
TGI (EKVX NSCLC): > 100 µM
TGI (IGROV1 ovarian): > 100 µM
TGI (NCI-H23 lung): > 100 µM
TGI (MCF7 breast): > 100 µM
TGI (RXF 393 renal): > 100 µM
TGI (CCRF-CEM leukemia): > 100 µM
TGI (HOP-92 NSCLC): > 100 µM
TGI (SF-539 CNS): > 100 µM
TGI (SR leukemia): > 100 µM
TGI (NCI-H522 lung): > 100 µM
TGI (MOLT-4 leukemia): > 100 µM
TGI (SF-268 CNS): > 100 µM
TGI (UACC-257 melanoma): > 100 µM
TGI (OVCAR-8 ovarian): > 100 µM
TGI (SW-620 colon): > 100 µM
TGI (RPMI-8226 leukemia): > 100 µM
TGI (SN12C renal): > 100 µM
TGI (786-0 renal): > 100 µM
TGI (M14 melanoma): > 100 µM
TGI (HS 578T breast): > 100 µM
TGI (LOX IMVI melanoma): > 100 µM
